Here are results for 59 sequences from the supplement of paper PMC11208160.
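Also: IS621 recombinase and bridge RNA in Escherichia coli cells.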

The data set can be described thus: recombinant barcode read abundance after kanamycin selection (control-corrected) (log10(CPM+1)); higher = more efficient recombination; sequences stand for … in AGTGCAGAGAAAATCGGCCAGTTTTCTCTGCCTGCAGTCCGCATGCCGT…AGATTTATGCAGCGGACTGCCTTTCTCCCAAAGTGATAAACCGGACAGTATCATGGACCGGTTTTCCCGGTAATCCGTATTTGCAAGGTTGGTTTCACT; site = the 11-nt target. As for the experimental part:
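Pooled E. coli target-specificity screen for the IS621 bridge recombinase. Each library plasmid pairs an 11-nt target (CT core) with a bridge RNA whose target-binding loop (9-nt LTG + 4-nt RTG) is reprogrammed; the rest of the 177-nt WT IS621 bridge RNA scaffold is fixed. The plasmid is co-electroporated with a WT donor plasmid; recombinase is induced with 0.1 mM IPTG and recombinants are selected on kanamycin. Recombinant barcodes are sequenced, converted to CPM, averaged over two biological replicates and corrected by the unselected control CPM. Molecule = full bridge RNA written as DNA: LTG = specificity nt 1-9, RTG = reverse complement of specificity nt 8-11, in the WT scaffold.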
For the sequence “ACGAACCCTTGGGTTCTAACCTGTTGCCT (site ACGAACCCTAG)”, the “recombinant barcode read abundance (log10)” value was found to be 1.42.

In the case of “ACGAACCCTTGGGTTCTAACCTGTTGCCT (site ACGGACCCTAT)”, the “recombinant barcode read abundance (log10)” value turned out to be 0.247.

With “ACGAAGACTTGGGTTCTAACCTGTTGCCG (site ACGAAGACTCG)”, the “recombinant barcode read abundance (log10)” value worked out at 1.08.

As for “ACGAAGACTTGGGTTCTAACCTGTTGCCG (site ACGAGGACTCG)”, the “recombinant barcode read abundance (log10)” value was found to be 0.0668.

For the sequence “ACGACGTCTTGGGTTCTAACCTGTTGCTT (site ACGACGTCTAA)”, the “recombinant barcode read abundance (log10)” value stood at 0.292.

Take “ACGACGTCTTGGGTTCTAACCTGTTGCTT (site TCGACGCCTAA)”: the “recombinant barcode read abundance (log10)” value amounted to 0.08.

“ACGACTACTTGGGTTCTAACCTGTTGCCG (site ACGACTACTCG)”: the “recombinant barcode read abundance (log10)” value was found to be 0.618.

In the case of “ACGACTACTTGGGTTCTAACCTGTTGCCG (site TATTGGCCTAC)”, the “recombinant barcode read abundance (log10)” value is 0.123.

“ACGATAACTTGGGTTCTAACCTGTTGCCA (site ACGATAACTTG)”: the “recombinant barcode read abundance (log10)” value worked out at 0.215.

Regarding “ACGATAACTTGGGTTCTAACCTGTTGCCA (site CTAGATTCTAT)”, the “recombinant barcode read abundance (log10)” value is 0.363.

For “ACGATACCTTGGGTTCTAACCTGTTGCCT (site ACGATACCTAG)”, the “recombinant barcode read abundance (log10)” value was determined as 0.967.

For “ACGATACCTTGGGTTCTAACCTGTTGCCT (site ACGTTACCTAG)”, the “recombinant barcode read abundance (log10)” value came out at 0.0943.

As for “ACGATATCTTGGGTTCTAACCTGTTGCCT (site AAGATATCTAG)”, the “recombinant barcode read abundance (log10)” value is 0.181.

As to “ACGATATCTTGGGTTCTAACCTGTTGCCT (site ACGATATCTAG)”, the “recombinant barcode read abundance (log10)” value was 1.37.

For “ACGATATCTTGGGTTCTAACCTGTTGCCT (site AGGATATCTAG)”, the “recombinant barcode read abundance (log10)” value came to 0.549.

With “ACGATATCTTGGGTTCTAACCTGTTGCCT (site ATGATATCTAG)”, the “recombinant barcode read abundance (log10)” value is 0.0859.

Regarding “ACGATCGCTTGGGTTCTAACCTGTTGCCT (site ACGAACGCTAG)”, the “recombinant barcode read abundance (log10)” value stood at 0.08.

Regarding “ACGATCGCTTGGGTTCTAACCTGTTGCCT (site ACGACCGCTAG)”, the “recombinant barcode read abundance (log10)” value was found to be 0.197.

With “ACGATCGCTTGGGTTCTAACCTGTTGCCT (site ACGAGCGCTAG)”, the “recombinant barcode read abundance (log10)” value was determined as 0.12.

Regarding “ACGATCGCTTGGGTTCTAACCTGTTGCCT (site ACGATCGCTAG)”, the “recombinant barcode read abundance (log10)” value amounted to 1.25.

In the case of “ACGATTCCTTGGGTTCTAACCTGTTGCCT (site AAGATTCCTAG)”, the “recombinant barcode read abundance (log10)” value is 0.132.

Turning to “ACGATTCCTTGGGTTCTAACCTGTTGCCT (site ACGATTCCTAG)”, the “recombinant barcode read abundance (log10)” value came out at 0.355.

For the sequence “ACGATTCCTTGGGTTCTAACCTGTTGCCT (site AGGATTCCTAG)”, the “recombinant barcode read abundance (log10)” value came out at 0.101.

In the case of “ACGATTCCTTGGGTTCTAACCTGTTGCCT (site ATGATTCCTAG)”, the “recombinant barcode read abundance (log10)” value was found to be 0.0978.

As for “ACGCACACTTGGGTTCTAACCTGTTGCCT (site ACGCACACTAG)”, the “recombinant barcode read abundance (log10)” value came to 0.214.

For “ACGCACACTTGGGTTCTAACCTGTTGCCT (site CCGCACACTAG)”, the “recombinant barcode read abundance (log10)” value worked out at 0.182.

Turning to “ACGCACACTTGGGTTCTAACCTGTTGCCT (site GCGCACACTAG)”, the “recombinant barcode read abundance (log10)” value was determined as 0.236.

As to “ACGCACACTTGGGTTCTAACCTGTTGCCT (site TCGCACACTAG)”, the “recombinant barcode read abundance (log10)” value amounted to 0.233.

For “ACGCACCCTTGGGTTCTAACCTGTTGCCA (site ACGAGCCCTTG)”, the “recombinant barcode read abundance (log10)” value was 0.123.

On to “ACGCACCCTTGGGTTCTAACCTGTTGCCA (site ACGCACCCTTG)”, for which the “recombinant barcode read abundance (log10)” value came to 0.379.

As for “ACGCACGCTTGGGTTCTAACCTGTTGCGG (site ACACACCCTCC)”, the “recombinant barcode read abundance (log10)” value worked out at 0.0809.

As to “ACGCACGCTTGGGTTCTAACCTGTTGCGG (site ACGCACGCTCC)”, the “recombinant barcode read abundance (log10)” value amounted to 0.979.

Regarding “ACGCCGACTTGGGTTCTAACCTGTTGCCT (site ACGCCGACTAG)”, the “recombinant barcode read abundance (log10)” value was determined as 0.432.

Regarding “ACGCCGACTTGGGTTCTAACCTGTTGCCT (site ACGCGGACTAG)”, the “recombinant barcode read abundance (log10)” value was 0.285.

Consider “ACGCGAGCTTGGGTTCTAACCTGTTGCCG (site ACGCGAGCTCA)”, for which the “recombinant barcode read abundance (log10)” value turned out to be 0.209.

For the sequence “ACGCGAGCTTGGGTTCTAACCTGTTGCCG (site ACGCGAGCTCC)”, the “recombinant barcode read abundance (log10)” value is 0.345.

Take “ACGCGAGCTTGGGTTCTAACCTGTTGCCG (site ACGCGAGCTCG)”: the “recombinant barcode read abundance (log10)” value stood at 0.288.

As to “ACGCGAGCTTGGGTTCTAACCTGTTGCCG (site ACGCGAGCTCT)”, the “recombinant barcode read abundance (log10)” value worked out at 0.215.

As to “ACGCGAGCTTGGGTTCTAACCTGTTGCTG (site ACGCGAGCTCA)”, the “recombinant barcode read abundance (log10)” value was 0.0871.

Regarding “ACGCGAGCTTGGGTTCTAACCTGTTGCTG (site ACGCGAGCTCC)”, the “recombinant barcode read abundance (log10)” value came to 0.

For “ACGCGAGCTTGGGTTCTAACCTGTTGCTG (site ACGCGAGCTCG)”, the “recombinant barcode read abundance (log10)” value came to 0.14.

For the sequence “ACGCGAGCTTGGGTTCTAACCTGTTGCTG (site ACGCGAGCTCT)”, the “recombinant barcode read abundance (log10)” value stood at 0.187.

Consider “ACGCGTCCTTGGGTTCTAACCTGTTGCCG (site ACGCGTCCTCG)”, for which the “recombinant barcode read abundance (log10)” value came to 0.263.

Consider “ACGCGTCCTTGGGTTCTAACCTGTTGCCG (site TCGCGTCCTCG)”, for which the “recombinant barcode read abundance (log10)” value was 0.355.

For the sequence “ACGCTAGCTTGGGTTCTAACCTGTTGCCT (site ACGCTAGCTAG)”, the “recombinant barcode read abundance (log10)” value came to 0.357.

On to “ACGCTAGCTTGGGTTCTAACCTGTTGCCT (site CCGCTAGCTAG)”, for which the “recombinant barcode read abundance (log10)” value came to 0.138.

For “ACGCTAGCTTGGGTTCTAACCTGTTGCCT (site GCGCTAGCTAG)”, the “recombinant barcode read abundance (log10)” value was determined as 0.226.

“ACGCTAGCTTGGGTTCTAACCTGTTGCCT (site TCGCTAGCTAG)”: the “recombinant barcode read abundance (log10)” value is 0.0462.

For “ACGCTGGCTTGGGTTCTAACCTGTTGCCT (site ACACTGGCTAG)”, the “recombinant barcode read abundance (log10)” value is 0.386.

For “ACGCTGGCTTGGGTTCTAACCTGTTGCCT (site ACCCTGGCTAG)”, the “recombinant barcode read abundance (log10)” value stood at 0.0594.

With “ACGCTGGCTTGGGTTCTAACCTGTTGCCT (site ACGCTGGCTAG)”, the “recombinant barcode read abundance (log10)” value was 0.381.

For the sequence “ACGCTGGCTTGGGTTCTAACCTGTTGCCT (site ACTCTGGCTAG)”, the “recombinant barcode read abundance (log10)” value is 0.0925.

On to “ACGGGATCTTGGGTTCTAACCTGTTGCCT (site ACGGGATCTAG)”, for which the “recombinant barcode read abundance (log10)” value came to 1.57.

Take “ACGGGATCTTGGGTTCTAACCTGTTGCCT (site CCGGGATCTAG)”: the “recombinant barcode read abundance (log10)” value turned out to be 0.24.

For the sequence “ACGGGATCTTGGGTTCTAACCTGTTGCCT (site GCGGGATCTAG)”, the “recombinant barcode read abundance (log10)” value was 0.129.

Consider “ACGGGATCTTGGGTTCTAACCTGTTGCCT (site TCGGGATCTAG)”, for which the “recombinant barcode read abundance (log10)” value was found to be 0.0975.

With “ACGGGTCCTTGGGTTCTAACCTGTTGCAG (site ACGGGTCCTCT)”, the “recombinant barcode read abundance (log10)” value worked out at 3.09.

For the sequence “ACGGGTCCTTGGGTTCTAACCTGTTGCAG (site GGCAAGGCTAG)”, the “recombinant barcode read abundance (log10)” value is 0.0641.

“ACGGGTTCTTGGGTTCTAACCTGTTGCCT (site ACGGGTTCTAG)”: the “recombinant barcode read abundance (log10)” value was 2.46.
